Experimental data: PubChem BioAssay (NCI)
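How tested: cells in 96-well plates exposed to compound for 48 hours at five concentrations. At the TGI there is no net growth.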

Experiments:
Experiment in all cases: DTP human tumour cell line panel, 48 h
786-0 renal = test system: 786-0 renal
A498 renal = test system: A498 renal
A549 NSCLC = test system: A549 NSCLC
ACHN renal = test system: ACHN renal
BT-549 breast = test system: BT-549 breast
CAKI-1 renal = test system: CAKI-1 renal
CCRF-CEM leukemia = test system: CCRF-CEM leukemia
COLO 205 colon = test system: COLO 205 colon
DU-145 prostate = test system: DU-145 prostate
EKVX NSCLC = test system: EKVX NSCLC
HCC-2998 colon = test system: HCC-2998 colon
HCT-116 colon = test system: HCT-116 colon
HCT-15 colon = test system: HCT-15 colon
HL-60(TB) leukemia = test system: HL-60(TB) leukemia
HOP-62 NSCLC = test system: HOP-62 NSCLC
HOP-92 NSCLC = test system: HOP-92 NSCLC
HS 578T breast = test system: HS 578T breast
HT29 colon = test system: HT29 colon
IGROV1 ovarian = test system: IGROV1 ovarian
K-562 leukemia = test system: K-562 leukemia
KM12 colon = test system: KM12 colon
LOX IMVI melanoma = test system: LOX IMVI melanoma
M14 melanoma = test system: M14 melanoma
MALME-3M melanoma = test system: MALME-3M melanoma
MCF7 breast = test system: MCF7 breast
MDA-MB-231 breast = test system: MDA-MB-231 breast
MDA-MB-435 = test system: MDA-MB-435
MDA-N = test system: MDA-N
MOLT-4 leukemia = test system: MOLT-4 leukemia
NCI-H226 lung = test system: NCI-H226 lung
NCI-H23 lung = test system: NCI-H23 lung
NCI-H460 lung = test system: NCI-H460 lung
NCI-H522 lung = test system: NCI-H522 lung
NCI/ADR-RES ovarian = test system: NCI/ADR-RES ovarian
OVCAR-3 ovarian = test system: OVCAR-3 ovarian
OVCAR-4 ovarian = test system: OVCAR-4 ovarian
OVCAR-8 ovarian = test system: OVCAR-8 ovarian
PC-3 prostate = test system: PC-3 prostate
RPMI-8226 leukemia = test system: RPMI-8226 leukemia
SF-268 CNS = test system: SF-268 CNS
SF-295 CNS = test system: SF-295 CNS
SF-539 CNS = test system: SF-539 CNS
SK-MEL-28 melanoma = test system: SK-MEL-28 melanoma
SK-MEL-5 melanoma = test system: SK-MEL-5 melanoma
SK-OV-3 ovarian = test system: SK-OV-3 ovarian
SN12C renal = test system: SN12C renal
SNB-19 CNS = test system: SNB-19 CNS
SR leukemia = test system: SR leukemia
SW-620 colon = test system: SW-620 colon
T-47D breast = test system: T-47D breast
TK-10 renal = test system: TK-10 renal
U251 CNS = test system: U251 CNS
UACC-257 melanoma = test system: UACC-257 melanoma
UO-31 renal = test system: UO-31 renal
OVCAR-5 ovarian = test system: OVCAR-5 ovarian
RXF 393 renal = test system: RXF 393 renal
SK-MEL-2 melanoma = test system: SK-MEL-2 melanoma
UACC-62 melanoma = test system: UACC-62 melanoma
SNB-75 CNS = test system: SNB-75 CNS

Measured: TGI

CNc1ccc(S(=O)Nc2ccc(OC)cc2)cc1 (stereo unspecified)
70.1 µM: MDA-MB-435
> 100 µM: 786-0 renal | A498 renal | A549 NSCLC | ACHN renal | BT-549 breast | CAKI-1 renal | CCRF-CEM leukemia | DU-145 prostate | EKVX NSCLC | HCC-2998 colon | HCT-116 colon | HCT-15 colon | HL-60(TB) leukemia | HOP-62 NSCLC | HOP-92 NSCLC | HS 578T breast | HT29 colon | IGROV1 ovarian | K-562 leukemia | LOX IMVI melanoma | M14 melanoma | MALME-3M melanoma | MCF7 breast | MDA-MB-231 breast | MDA-N | MOLT-4 leukemia | NCI-H226 lung | NCI-H23 lung | NCI-H460 lung | NCI-H522 lung | NCI/ADR-RES ovarian | OVCAR-3 ovarian | OVCAR-4 ovarian | OVCAR-8 ovarian | PC-3 prostate | RPMI-8226 leukemia | SF-268 CNS | SF-295 CNS | SF-539 CNS | SK-MEL-28 melanoma | SK-MEL-5 melanoma | SK-OV-3 ovarian | SN12C renal | SNB-19 CNS | SR leukemia | SW-620 colon | T-47D breast | TK-10 renal | U251 CNS | UACC-257 melanoma
34.8 µM: UO-31 renal
22.2 µM: KM12 colon
91.4 µM: COLO 205 colon

CC(C)(C)c1cc2c(O)c(c1)C(c1ccccc1)c1cc(C(C)(C)C)cc(c1O)Cc1cc(C(C)(C)C)cc(c1O)C(c1ccccc1)c1cc(C(C)(C)C)cc(c1O)C2 (stereo unspecified)
> 100 µM: 786-0 renal | A498 renal | A549 NSCLC | ACHN renal | BT-549 breast | CAKI-1 renal | CCRF-CEM leukemia | COLO 205 colon | DU-145 prostate | EKVX NSCLC | HCC-2998 colon | HCT-116 colon | HCT-15 colon | HL-60(TB) leukemia | HOP-62 NSCLC | HOP-92 NSCLC | HS 578T breast | HT29 colon | IGROV1 ovarian | K-562 leukemia | KM12 colon | LOX IMVI melanoma | M14 melanoma | MCF7 breast | MDA-MB-231 breast | MDA-MB-435 | MDA-N | MOLT-4 leukemia | NCI-H23 lung | NCI-H460 lung | NCI-H522 lung | NCI/ADR-RES ovarian | OVCAR-3 ovarian | OVCAR-4 ovarian | OVCAR-5 ovarian | OVCAR-8 ovarian | PC-3 prostate | RXF 393 renal | SF-268 CNS | SF-295 CNS | SF-539 CNS | SK-MEL-2 melanoma | SK-MEL-28 melanoma | SK-MEL-5 melanoma | SN12C renal | SNB-19 CNS | SR leukemia | SW-620 colon | T-47D breast | TK-10 renal | U251 CNS | UACC-257 melanoma | UACC-62 melanoma | UO-31 renal

Nc1ccccc1C(=O)CCc1c[nH]c2ccccc12
> 100 µM: 786-0 renal | A498 renal | A549 NSCLC | ACHN renal | BT-549 breast | DU-145 prostate | EKVX NSCLC | HCC-2998 colon | HCT-116 colon | HCT-15 colon | HL-60(TB) leukemia | HOP-62 NSCLC | HS 578T breast | HT29 colon | IGROV1 ovarian | K-562 leukemia | KM12 colon | LOX IMVI melanoma | M14 melanoma | MALME-3M melanoma | MCF7 breast | MDA-MB-231 breast | MDA-MB-435 | MDA-N | MOLT-4 leukemia | NCI-H226 lung | NCI-H460 lung | NCI-H522 lung | NCI/ADR-RES ovarian | OVCAR-3 ovarian | OVCAR-4 ovarian | OVCAR-5 ovarian | OVCAR-8 ovarian | PC-3 prostate | RPMI-8226 leukemia | SF-268 CNS | SF-295 CNS | SF-539 CNS | SK-MEL-2 melanoma | SK-MEL-28 melanoma | SK-OV-3 ovarian | SN12C renal | SNB-19 CNS | SNB-75 CNS | SR leukemia | SW-620 colon | T-47D breast | TK-10 renal | U251 CNS | UACC-257 melanoma | UACC-62 melanoma | UO-31 renal
55.2 µM: HOP-92 NSCLC
